Laboratory results taken from patent publication US20020137929A1, “1 - (3-heterocyclylphenyl) isothiourea, -isourea, -guanidine and -amidine herbicidal agents” (Intellectual Property Department, BASF Aktiengesellschaft, priority 1998, published 2002).

Legend:
[1] = tested on: AMBEL (Ragweed, Common); assay: Postemergence herbicidal evaluation; format: in vivo, Ambrosia artemisifolia; conditions: postemergence
Procedure, shortened: (§1)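 Each compound, dispersed in an acetone/water mix (50/50) carrying 0.5% TWEEN 20, is nozzle-sprayed at 40 psi on approximately two-week-old seedlings at about 0.0156–0.500 kg/ha. Plants are assessed 4–5 weeks afterward on a 0–9 scale relative to control; duplicate tests are averaged.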

[2] = tested on: ZEAMX (Corn, Field); assay: Preemergence herbicidal evaluation; format: in vivo, Zea mays; conditions: rated 4-5 weeks after treatment, rating scale 0-9
Procedure, shortened: (§2)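 Each species is sown separately in potting soil over roughly an inch of soil before any emergence. The soil surface then receives an aqueous acetone spray delivering about 0.0156 to 0.500 kg/ha of compound. After four to five weeks, injury is scored from 0 to 9 relative to a control.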

[3] = tested on: CASOB (Sicklepod); assay: Preemergence herbicidal evaluation; format: in vivo, Cassia obtusifolia; conditions: rated 4-5 weeks after treatment, rating scale 0-9
Procedure, shortened: as §2

[4] = tested on: GLXMAW (Soybean, Williams); assay: Postemergence herbicidal evaluation; format: in vivo, Glycine max, (L.) Merr. cv Williams; conditions: postemergence
Procedure, shortened: as §1

[5] = tested on: GALAP (Galium); assay: Postemergence herbicidal evaluation; format: in vivo, Galium aparine; conditions: postemergence
Procedure, shortened: as §1

[6] = tested on: SAGPY (Arrowhead (Pygmaea)); assay: Preemergence weed control under flooded paddy conditions; format: in vivo, Sagittaria pygmaea; conditions: rated 3-4 weeks after treatment
Procedure, shortened: (§3)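 Flooded-pot preemergence screen with silt loam and seeds in the upper 0.5 cm. Dose about 0.0313 to 0.500 kg/ha, delivered into flood water; visual 0-9 score after 3 to 4 weeks.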

[7] = tested on: CHEAL (Lambsquarters, Common); assay: Postemergence herbicidal evaluation; format: in vivo, Chenopodium album; conditions: postemergence
Procedure, shortened: as §1

[8] = tested on: CASOB (Sicklepod); assay: Postemergence herbicidal evaluation; format: in vivo, Cassia obtusifolia; conditions: postemergence
Procedure, shortened: as §1

[9] = tested on: ORYSAT (Rice, Tebonnet); assay: Postemergence herbicidal evaluation; format: in vivo, Oryza sativa, (L.) Tebonnet; conditions: postemergence
Procedure, shortened: as §1

[10] = tested on: SETVI (Foxtail, Green); assay: Postemergence herbicidal evaluation; format: in vivo, Setaria viridis; conditions: postemergence
Procedure, shortened: as §1

[11] = tested on: CYPSE (Flatsedge); assay: Preemergence weed control under flooded paddy conditions; format: in vivo, Cyperus serotinus; conditions: rated 3-4 weeks after treatment
Procedure, shortened: as §3

[12] = tested on: ECHCG (Barnyardgrass); assay: Postemergence herbicidal evaluation; format: in vivo, Echinochloa crus-galli; conditions: postemergence
Procedure, shortened: as §1

[13] = tested on: GALAP (Galium); assay: Preemergence herbicidal evaluation; format: in vivo, Galium aparine; conditions: rated 4-5 weeks after treatment, rating scale 0-9
Procedure, shortened: as §2

[14] = tested on: CYPIR (Rice Flatsedge); assay: Preemergence weed control under flooded paddy conditions; format: in vivo, Cyperus iria; conditions: rated 3-4 weeks after treatment
Procedure, shortened: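 Herbicidal effect is scored visually on a 0-9 scale against an untreated control, three to four weeks after compounds are pipetted into the flood water (1.5 to 3 cm deep) over seeds planted in silt loam at 0.5 cm depth. Rates: about 0.0313 to 0.500 kg/ha.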

Cn1c(C(F)(F)F)cc(=O)n(-c2cc(N=C3SCC(=O)N3C3CC3)c(Cl)cc2F)c1=O [Compound 152, 3-{4-Chloro-5-[(3-cyclopropyl-4-oxo-2-thiazolidinylidene)amino]-2-fluorophenyl}-1-methyl-6-(trifluoromethyl)-2,4(1H,3H)-pyrimidinedione]
herbicidal rating AMBEL ([1]; rate 0.0156 kg/ha): 2.0 | herbicidal rating AMBEL ([1]; rate 0.0313 kg/ha): 4.0 | herbicidal rating AMBEL ([1]; rate 0.0625 kg/ha): 9.0 | Preemergence herbicidal rating ZEAMX ([2]; rate 0.0313 kg/ha): 0.0 | Preemergence herbicidal rating ZEAMX ([2]; rate 0.0625 kg/ha): 1.0 | Preemergence herbicidal rating ZEAMX ([2]; rate 0.1250 kg/ha): 1.0 | Preemergence herbicidal rating ZEAMX ([2]; rate 0.2500 kg/ha): 2.0 | Preemergence herbicidal rating CASOB ([3]; rate 0.0313 kg/ha): 0.0 | Preemergence herbicidal rating CASOB ([3]; rate 0.0625 kg/ha): 1.0 | Preemergence herbicidal rating CASOB ([3]; rate 0.1250 kg/ha): 0.0 | Preemergence herbicidal rating CASOB ([3]; rate 0.2500 kg/ha): 3.0 | herbicidal rating GLXMAW ([4]; rate 0.0156 kg/ha): 4.0 | herbicidal rating GLXMAW ([4]; rate 0.0313 kg/ha): 4.5 | herbicidal rating GLXMAW ([4]; rate 0.0625 kg/ha): 6.0 | herbicidal rating GALAP ([5]; rate 0.0156 kg/ha): 0.0 | herbicidal rating GALAP ([5]; rate 0.0313 kg/ha): 0.0 | herbicidal rating GALAP ([5]; rate 0.0625 kg/ha): 2.0 | herbicidal effect rating, SAGPY ([6]; 0.0625 kg/ha): 0.0 | herbicidal effect rating, SAGPY ([6]; 0.1250 kg/ha): 0.0 | herbicidal effect rating, SAGPY ([6]; 0.2500 kg/ha): 0.0 | herbicidal rating CHEAL ([7]; rate 0.0156 kg/ha): 0.0 | herbicidal rating CHEAL ([7]; rate 0.0313 kg/ha): 4.0 | herbicidal rating CHEAL ([7]; rate 0.0625 kg/ha): 9.0 | herbicidal rating CASOB ([8]; rate 0.0156 kg/ha): 0.0 | herbicidal rating CASOB ([8]; rate 0.0313 kg/ha): 0.0 | herbicidal rating CASOB ([8]; rate 0.0625 kg/ha): 3.0 | herbicidal rating ORYSAT ([9]; rate 0.0156 kg/ha): 1.5 | herbicidal rating ORYSAT ([9]; rate 0.0313 kg/ha): 2.0 | herbicidal rating ORYSAT ([9]; rate 0.0625 kg/ha): 3.0 | herbicidal rating SETVI ([10]; rate 0.0156 kg/ha): 0.0 | herbicidal rating SETVI ([10]; rate 0.0313 kg/ha): 3.0 | herbicidal rating SETVI ([10]; rate 0.0625 kg/ha): 3.0 | herbicidal effect rating, CYPSE ([11]; 0.0625 kg/ha): 0.0 | herbicidal effect rating, CYPSE ([11]; 0.1250 kg/ha): 0.0 | herbicidal effect rating, CYPSE ([11]; 0.2500 kg/ha): 0.0 | herbicidal rating ECHCG ([12]; rate 0.0156 kg/ha): 1.0 | herbicidal rating ECHCG ([12]; rate 0.0313 kg/ha): 2.0 | herbicidal rating ECHCG ([12]; rate 0.0625 kg/ha): 2.0 | Preemergence herbicidal rating GALAP ([13]; rate 0.0313 kg/ha): 0.0 | Preemergence herbicidal rating GALAP ([13]; rate 0.0625 kg/ha): 0.0 | Preemergence herbicidal rating GALAP ([13]; rate 0.1250 kg/ha): 1.0 | Preemergence herbicidal rating GALAP ([13]; rate 0.2500 kg/ha): 6.0 | herbicidal effect rating, CYPIR ([14]; 0.0625 kg/ha): 0.0 | herbicidal effect rating, CYPIR ([14]; 0.1250 kg/ha): 0.0 | herbicidal effect rating, CYPIR ([14]; 0.2500 kg/ha): 0.0

COc1ccc(CN2C(=O)CSC2=Nc2cc(-n3c(=O)cc(C(F)(F)F)n(C)c3=O)c(F)cc2Cl)c(OC)c1 [Compound 139, 3-{4-Chloro-5-{[3-(2,4-dimethoxybenzyl)-4-oxo-2-thiazolidinylidene]amino}-2-fluorophenyl}-1-methyl-6-(trifluoromethyl)-2,4(1H,3H)-pyrimidinedione]
herbicidal rating AMBEL ([1]; rate 0.0156 kg/ha): 9.0 | herbicidal rating AMBEL ([1]; rate 0.0313 kg/ha): 9.0 | herbicidal rating AMBEL ([1]; rate 0.0625 kg/ha): 7.0 | Preemergence herbicidal rating ZEAMX ([2]; rate 0.0156 kg/ha): 0.0 | Preemergence herbicidal rating ZEAMX ([2]; rate 0.0313 kg/ha): 0.0 | Preemergence herbicidal rating ZEAMX ([2]; rate 0.0625 kg/ha): 0.0 | Preemergence herbicidal rating ZEAMX ([2]; rate 0.1250 kg/ha): 0.0 | Preemergence herbicidal rating ZEAMX ([2]; rate 0.2500 kg/ha): 1.0 | Preemergence herbicidal rating CASOB ([3]; rate 0.0156 kg/ha): 0.0 | Preemergence herbicidal rating CASOB ([3]; rate 0.0313 kg/ha): 0.0 | Preemergence herbicidal rating CASOB ([3]; rate 0.0625 kg/ha): 1.0 | Preemergence herbicidal rating CASOB ([3]; rate 0.1250 kg/ha): 2.0 | Preemergence herbicidal rating CASOB ([3]; rate 0.2500 kg/ha): 1.0 | herbicidal rating GLXMAW ([4]; rate 0.0156 kg/ha): 5.5 | herbicidal rating GLXMAW ([4]; rate 0.0313 kg/ha): 6.5 | herbicidal rating GLXMAW ([4]; rate 0.0625 kg/ha): 7.0 | herbicidal rating GALAP ([5]; rate 0.0156 kg/ha): 1.0 | herbicidal rating GALAP ([5]; rate 0.0313 kg/ha): 3.0 | herbicidal rating GALAP ([5]; rate 0.0625 kg/ha): 4.0 | herbicidal effect rating, SAGPY ([6]; 0.0313 kg/ha): 0.0 | herbicidal effect rating, SAGPY ([6]; 0.0625 kg/ha): 0.0 | herbicidal effect rating, SAGPY ([6]; 0.1250 kg/ha): 0.0 | herbicidal effect rating, SAGPY ([6]; 0.2500 kg/ha): 0.0 | herbicidal rating CHEAL ([7]; rate 0.0156 kg/ha): 9.0 | herbicidal rating CHEAL ([7]; rate 0.0313 kg/ha): 9.0 | herbicidal rating CHEAL ([7]; rate 0.0625 kg/ha): 9.0 | herbicidal rating CASOB ([8]; rate 0.0156 kg/ha): 4.0 | herbicidal rating CASOB ([8]; rate 0.0313 kg/ha): 5.0 | herbicidal rating CASOB ([8]; rate 0.0625 kg/ha): 9.0 | herbicidal rating ORYSAT ([9]; rate 0.0156 kg/ha): 2.0 | herbicidal rating ORYSAT ([9]; rate 0.0313 kg/ha): 3.0 | herbicidal rating ORYSAT ([9]; rate 0.0625 kg/ha): 3.5 | herbicidal rating SETVI ([10]; rate 0.0156 kg/ha): 2.0 | herbicidal rating SETVI ([10]; rate 0.0313 kg/ha): 2.0 | herbicidal rating SETVI ([10]; rate 0.0625 kg/ha): 5.0 | herbicidal effect rating, CYPSE ([11]; 0.1250 kg/ha): 0.0 | herbicidal effect rating, CYPSE ([11]; 0.2500 kg/ha): 0.0 | herbicidal rating ECHCG ([12]; rate 0.0156 kg/ha): 3.0 | herbicidal rating ECHCG ([12]; rate 0.0313 kg/ha): 2.0 | herbicidal rating ECHCG ([12]; rate 0.0625 kg/ha): 3.0 | Preemergence herbicidal rating GALAP ([13]; rate 0.0156 kg/ha): 0.0 | Preemergence herbicidal rating GALAP ([13]; rate 0.0313 kg/ha): 0.0 | Preemergence herbicidal rating GALAP ([13]; rate 0.0625 kg/ha): 0.0 | Preemergence herbicidal rating GALAP ([13]; rate 0.1250 kg/ha): 0.0 | Preemergence herbicidal rating GALAP ([13]; rate 0.2500 kg/ha): 0.0 | herbicidal effect rating, CYPIR ([14]; 0.0313 kg/ha): 2.0 | herbicidal effect rating, CYPIR ([14]; 0.0625 kg/ha): 4.0 | herbicidal effect rating, CYPIR ([14]; 0.1250 kg/ha): 5.0 | herbicidal effect rating, CYPIR ([14]; 0.2500 kg/ha): 6.0
